Reference: ChEMBL document CHEMBL2434943, “Elaboration of thorough simplified vinca alkaloids as antimitotic agents based on pharmacophore similarity” (Eur J Med Chem, 2013)
Activity calls are given as the source filed them. The calls are words filed in the database; no cut-off is given here.

Columns and labels:
MCF7 [1] = experiment: Cell cycle arrest in human MCF7 cells assessed as accumulation at S phase at 1 uM after 36 hrs by propidium iodide staining-based flow cytometric analysis (reference value: 12.5%); format: functional
MCF7 [2] = experiment: Cell cycle arrest in human MCF7 cells assessed as accumulation at G0/G1 phase at 5 uM after 36 hrs by propidium iodide staining-based flow cytometric analysis (reference value: 67.3%); format: functional
HepG2 [3] = experiment: Cell cycle arrest in human HepG2 cells assessed as accumulation at subG1 phase at 10 uM after 48 hrs by propidium iodide staining-based flow cytometric analysis (reference value: 1.2%); format: functional
HepG2 [4] = experiment: Antimitotic activity in human HepG2 cells assessed as disruption of microtubule network at 5 uM by DAPI staining-based laser scanning confocal microscopic analysis; format: functional, cell-based; conditions: TDE = time-dependent effect
K562 = experiment: Cytotoxicity against human K562 cells assessed as growth inhibition after 72 hrs by MTT assay; format: functional, cell-based; conditions: K562, 72 h
MCF7 [5] = experiment: Cell cycle arrest in human MCF7 cells assessed as accumulation at G0/G1 phase at 1 uM after 36 hrs by propidium iodide staining-based flow cytometric analysis (reference value: 67.3%); format: functional
HepG2 [6] = experiment: Cell cycle arrest in human HepG2 cells assessed as accumulation at G0/G1 phase at 3 uM after 48 hrs by propidium iodide staining-based flow cytometric analysis (reference value: 65.9%); format: functional
HepG2 [7] = experiment: Cell cycle arrest in human HepG2 cells assessed as accumulation at subG1 phase at 3 uM after 48 hrs by propidium iodide staining-based flow cytometric analysis (reference value: 1.2%); format: functional
MCF7 [8] = experiment: Cell cycle arrest in human MCF7 cells assessed as accumulation at subG1 phase at 3 uM after 36 hrs by propidium iodide staining-based flow cytometric analysis (reference value: 1.2%); format: functional
MDA-MB-231 = experiment: Cytotoxicity against human MDA-MB-231 cells assessed as growth inhibition after 72 hrs by MTT assay; format: functional, cell-based; conditions: MDA-MB-231, 72 h
MCF7 [9] = experiment: Cell cycle arrest in human MCF7 cells assessed as accumulation at subG1 phase at 1 uM after 36 hrs by propidium iodide staining-based flow cytometric analysis (reference value: 1.2%); format: functional
HepG2 [10] = experiment: Cell cycle arrest in human HepG2 cells assessed as accumulation at subG1 phase at 5 uM after 48 hrs by propidium iodide staining-based flow cytometric analysis (reference value: 1.2%); format: functional
MCF7 [11] = experiment: Cell cycle arrest in human MCF7 cells assessed as accumulation at S phase at 5 uM after 36 hrs by propidium iodide staining-based flow cytometric analysis (reference value: 12.5%); format: functional
HepG2 [12] = experiment: Cell cycle arrest in human HepG2 cells assessed as accumulation at G0/G1 phase at 10 uM after 48 hrs by propidium iodide staining-based flow cytometric analysis (reference value: 65.9%); format: functional
MCF7 [13] = experiment: Cell cycle arrest in human MCF7 cells assessed as accumulation at G2/M phase at 3 uM after 36 hrs by propidium iodide staining-based flow cytometric analysis (reference value: 19%); format: functional
HepG2 [14] = experiment: Cell cycle arrest in human HepG2 cells assessed as accumulation at G2/M phase at 3 uM after 48 hrs by propidium iodide staining-based flow cytometric analysis (reference value: 22.4%); format: functional
HepG2 [15] = experiment: Cell cycle arrest in human HepG2 cells assessed as accumulation at S phase at 10 uM after 48 hrs by propidium iodide staining-based flow cytometric analysis (reference value: 10.5%); format: functional
Tubulin (Homo sapiens) = Tubulin (Homo sapiens) (UniProt P68371+Q9H4B7+P0DPH7+P68366+Q13509+Q71U36+P04350+Q3ZCM7+P07437+P68363+Q9BQE3+Q6PEY2+Q13885+Q9BVA1+Q9BUF5); experiment: Inhibition of tubulin polymerization (unknown origin) at 3 to 10 uM after 90 mins; format: protein-complex assay
MCF7 [16] = experiment: Cell cycle arrest in human MCF7 cells assessed as accumulation at G2/M phase at 5 uM after 36 hrs by propidium iodide staining-based flow cytometric analysis (reference value: 19%); format: functional
HepG2 [17] = experiment: Cytotoxicity against human HepG2 cells assessed as growth inhibition after 72 hrs by MTT assay; format: functional, cell-based; conditions: HepG2, 72 h
MCF7 [18] = experiment: Cell cycle arrest in human MCF7 cells assessed as accumulation at subG1 phase at 5 uM after 36 hrs by propidium iodide staining-based flow cytometric analysis (reference value: 1.2%); format: functional
MCF7 [19] = experiment: Cytotoxicity against human MCF7 cells assessed as growth inhibition after 72 hrs by MTT assay; format: functional, cell-based; conditions: MCF7, 72 h
HepG2 [20] = experiment: Cell cycle arrest in human HepG2 cells assessed as accumulation at G2/M phase at 5 uM after 48 hrs by propidium iodide staining-based flow cytometric analysis (reference value: 22.4%); format: functional
HepG2 [21] = experiment: Antimitotic activity in human HepG2 cells assessed as cell morphological changes at 5 uM after 3 to 12 hrs by DAPI staining-based laser scanning confocal microscopic analysis; format: functional
HepG2 [22] = experiment: Cell cycle arrest in human HepG2 cells assessed as accumulation at S phase at 5 uM after 48 hrs by propidium iodide staining-based flow cytometric analysis (reference value: 10.5%); format: functional
HepG2 [23] = experiment: Cell cycle arrest in human HepG2 cells assessed as accumulation at S phase at 3 uM after 48 hrs by propidium iodide staining-based flow cytometric analysis (reference value: 10.5%); format: functional
MCF7 [24] = experiment: Cell cycle arrest in human MCF7 cells assessed as accumulation at S phase at 3 uM after 36 hrs by propidium iodide staining-based flow cytometric analysis (reference value: 12.5%); format: functional
[25] = Cytotoxicity against KM mouse splenic lymphocytes assessed as growth inhibition after 72 hrs by MTT assay; conditions: Splenic lymphocyte
HepG2 [26] = experiment: Cell cycle arrest in human HepG2 cells assessed as accumulation at G0/G1 phase at 5 uM after 48 hrs by propidium iodide staining-based flow cytometric analysis (reference value: 65.9%); format: functional
MCF7 [27] = experiment: Cell cycle arrest in human MCF7 cells assessed as accumulation at G2/M phase at 1 uM after 36 hrs by propidium iodide staining-based flow cytometric analysis (reference value: 19%); format: functional
HepG2 [28] = experiment: Cell cycle arrest in human HepG2 cells assessed as accumulation at G2/M phase at 10 uM after 48 hrs by propidium iodide staining-based flow cytometric analysis (reference value: 22.4%); format: functional
HepG2 [29] = experiment: Cytotoxicity against adriamycin-resistant human HepG2 cells assessed as growth inhibition after 72 hrs by MTT assay; format: functional, cell-based; conditions: HepG2, 72 h
MCF7 [30] = experiment: Cell cycle arrest in human MCF7 cells assessed as accumulation at G0/G1 phase at 3 uM after 36 hrs by propidium iodide staining-based flow cytometric analysis (reference value: 67.3%); format: functional

SMILES: CC1(C)C(/C=C/c2cccc([N+](=O)[O-])c2)=Nc2ccccc21
- Activity (MCF7 [1]): 14%
- Activity (MCF7 [2]): 19.6%
- Activity (HepG2 [3]): 2.5%
- Activity (HepG2 [4]): tde
- IC50 (K562): 4.38 µM
- Activity (MCF7 [5]): 56.8%
- Activity (HepG2 [6]): 51.3%
- Activity (HepG2 [7]): 2.9%
- Activity (MCF7 [8]): 9.7%
- IC50 (MDA-MB-231): 1.87 µM
- Activity (MCF7 [9]): 1.2%
- Activity (HepG2 [10]): 3.5%
- Activity (MCF7 [11]): 12.3%
- Activity (HepG2 [12]): 36.8%
- Activity (MCF7 [13]): 39.7%
- Activity (HepG2 [14]): 37.6%
- Activity (HepG2 [15]): 8.6%
- inhibition (Tubulin (Homo sapiens)): Active
- Activity (MCF7 [16]): 46.7%
- IC50 (HepG2 [17]): 5.04 µM
- Activity (MCF7 [18]): 21.4%
- IC50 (MCF7 [19]): 0.89 µM
- Activity (HepG2 [20]): 71.3%
- Activity (HepG2 [21]): Active
- Activity (HepG2 [22]): 9.9%
- Activity (HepG2 [23]): 8.2%
- Activity (MCF7 [24]): 10%
- IC50 [25]: 18.8 µM
- Activity (HepG2 [26]): 15.3%
- Activity (MCF7 [27]): 28%
- Activity (HepG2 [28]): 52.1%
- IC50 (HepG2 [29]): 2.27 µM
- Activity (MCF7 [30]): 40.6%
